From PubChem BioAssay (NCI)
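Step 1: Grow cells in 96-well plates. Step 2: Expose to compound for 48 hours at 5 concentrations. Step 3: Interpolate endpoints linearly; if unreached, use highest concentration. GI50 is the concentration that inhibits growth by half. TGI marks complete inhibition of growth.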

Key:
Experiment in all cases: growth of human tumour cells (NCI), 48 h
COLO 205 colon = tested on: COLO 205 colon
KM12 colon = tested on: KM12 colon
NCI/ADR-RES ovarian = tested on: NCI/ADR-RES ovarian
A549 NSCLC = tested on: A549 NSCLC
DU-145 prostate = tested on: DU-145 prostate
SK-MEL-2 melanoma = tested on: SK-MEL-2 melanoma
SF-295 CNS = tested on: SF-295 CNS
SF-268 CNS = tested on: SF-268 CNS
OVCAR-8 ovarian = tested on: OVCAR-8 ovarian
LOX IMVI melanoma = tested on: LOX IMVI melanoma
HS 578T breast = tested on: HS 578T breast
BT-549 breast = tested on: BT-549 breast
M14 melanoma = tested on: M14 melanoma
SF-539 CNS = tested on: SF-539 CNS
CAKI-1 renal = tested on: CAKI-1 renal
SN12C renal = tested on: SN12C renal
A498 renal = tested on: A498 renal
T-47D breast = tested on: T-47D breast
HCT-116 colon = tested on: HCT-116 colon
HOP-62 NSCLC = tested on: HOP-62 NSCLC
OVCAR-5 ovarian = tested on: OVCAR-5 ovarian
IGROV1 ovarian = tested on: IGROV1 ovarian
EKVX NSCLC = tested on: EKVX NSCLC
RXF 393 renal = tested on: RXF 393 renal
CCRF-CEM leukemia = tested on: CCRF-CEM leukemia
HL-60(TB) leukemia = tested on: HL-60(TB) leukemia
UACC-62 melanoma = tested on: UACC-62 melanoma
SNB-19 CNS = tested on: SNB-19 CNS
786-0 renal = tested on: 786-0 renal

CCCc1cc2c(=O)c(C(=O)OC)c[nH]c2cc1N(CC)CC
GI50 (COLO 205 colon): 46.5 µM
TGI (COLO 205 colon): > 100 µM
GI50 (KM12 colon): 45.5 µM
TGI (KM12 colon): > 100 µM
GI50 (NCI/ADR-RES ovarian): 24.2 µM
TGI (NCI/ADR-RES ovarian): 72.8 µM
GI50 (A549 NSCLC): 38.3 µM
TGI (A549 NSCLC): > 100 µM
GI50 (DU-145 prostate): 20.2 µM
TGI (DU-145 prostate): 49.6 µM
GI50 (SK-MEL-2 melanoma): 36.1 µM
TGI (SK-MEL-2 melanoma): 97.8 µM
GI50 (SF-295 CNS): 8.16 µM
TGI (SF-295 CNS): 24.8 µM
GI50 (SF-268 CNS): 28.6 µM
TGI (SF-268 CNS): 87.6 µM
GI50 (OVCAR-8 ovarian): 29.4 µM
TGI (OVCAR-8 ovarian): 95.7 µM
GI50 (LOX IMVI melanoma): 25.8 µM
TGI (LOX IMVI melanoma): 77.9 µM
GI50 (HS 578T breast): 19.6 µM
TGI (HS 578T breast): 48.1 µM
GI50 (BT-549 breast): 39.8 µM
TGI (BT-549 breast): > 100 µM
GI50 (M14 melanoma): 57 µM
TGI (M14 melanoma): > 100 µM
GI50 (SF-539 CNS): 34 µM
TGI (SF-539 CNS): > 100 µM
GI50 (CAKI-1 renal): 11.7 µM
TGI (CAKI-1 renal): 29.1 µM
GI50 (SN12C renal): 41.2 µM
TGI (SN12C renal): > 100 µM
GI50 (A498 renal): 82.3 µM
TGI (A498 renal): > 100 µM
GI50 (T-47D breast): 53 µM
TGI (T-47D breast): > 100 µM
GI50 (HCT-116 colon): 21.5 µM
TGI (HCT-116 colon): 59.1 µM
GI50 (HOP-62 NSCLC): 20.4 µM
TGI (HOP-62 NSCLC): 37.9 µM
GI50 (OVCAR-5 ovarian): > 100 µM
TGI (OVCAR-5 ovarian): > 100 µM
GI50 (IGROV1 ovarian): > 100 µM
TGI (IGROV1 ovarian): > 100 µM
GI50 (EKVX NSCLC): 16.9 µM
TGI (EKVX NSCLC): 42.7 µM
GI50 (RXF 393 renal): 31.4 µM
TGI (RXF 393 renal): 85 µM
GI50 (CCRF-CEM leukemia): 85.8 µM
TGI (CCRF-CEM leukemia): > 100 µM
GI50 (HL-60(TB) leukemia): 62.5 µM
TGI (HL-60(TB) leukemia): > 100 µM
GI50 (UACC-62 melanoma): > 100 µM
TGI (UACC-62 melanoma): > 100 µM
GI50 (SNB-19 CNS): 28.6 µM
TGI (SNB-19 CNS): 77.8 µM
GI50 (786-0 renal): 19.6 µM
TGI (786-0 renal): 39.8 µM
